Test results published in US5869500A, “Pyridone compounds useful in treating Alzheimer's disease” (Hoffmann-La Roche Inc., priority 1996, dated 1999).
Counter-ions that a name gives are not always drawn.

Legend:
[1] = system: Aβ production in HEK cells over-expressing mutated β-APP (SFAD); experiment: Aβ production inhibition, sandwich-ELISA in HEK cells, over-expressed mutated β-APP (SE-SFAD); format: cell-based, human; conditions: Homo sapiens, HEK293, HEK cells; for IC50: based on the respective plateau of maximum inhibition; for Emax: maximum inhibition plateau, read-out: SE-SFAD max. inhibition %
Outline: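 HEK cells expressing recombinant human wild-type or mutated (SFAD) β-APP treated with compound for 24 to 48 hours at 37° C, 10% CO2. IC50 based on plateau of maximum inhibition.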

[2] = system: Aβ production in HEK cells over-expressing Wild type β-APP; experiment: Aβ production inhibition, sandwich-ELISA in HEK cells which over-express Wild type β-APP (SE-WT); format: cell-based, human; conditions: Homo sapiens; for IC50: HEK293, based on the respective plateau of maximum inhibition; for Emax: HEK293, maximum inhibition plateau, read-out: SE-WT max. inhibition %
Procedure: The effect of test substances on the inhibition of Aβ-amyloid production can be measured in the supernatant of cell cultures of β-APP expressed cells using ELISA tests or other quantitative determination methods for β-APP degradation products. Typically, 8×10^5 cells (e.g. HEK cells, which express recombinant human β-APP variants) are plated out in each well of a culture dish having 24 wells in growth media such as e.g. OPTIMEM (Gibco) and the test compound is then added. After an incubation period of 24 to 48 hours at 37° C. in a 10% CO2 atmosphere the supernatant is removed from the cell cultures and the β-APP degradation products (e.g. Aβ or β-[…]) are determined with the aid of ELISA (or sandwich ELISA) analysis or by means of quantitative immunoprecipitation (after metabolic radiolabelling of the cell proteins). Typically, 300 μl of the cell supernatant are tested according to the state of the art for ELISA tests in culture dishes having 96 wells. In the case of sandwich ELISA for Aβ, the binding antibody can be directed against the first 16 amino acids of Aβ-peptide (e.g. 6E10 Senetek, Maryland Heights, Mo.) and the detection antibody can be directed against amino acids 17-40 or 17-42 of Aβ and carries a detection system such as e.g. peroxidase. A simple ELISA test with an antibody, e.g. 22C11 (Boehringer Mannheim), can be used as the test for […]; the second antibody can be an anti-(mouse) Ig having a detection system, such as e.g. peroxidase. The peroxidase reaction can be carried out e.g. using a TMB substrate (BioRAD) and the measurements can be carried out at 650 nm using an ELISA reading apparatus. […] SE-SFAD signifies the Aβ production inhibition measured using sandwich-ELISA in HEK cells, SFAD signifies over-expressed mutated β-APP, and SE-WT signifies the Aβ production inhibition measured using sandwich-ELISA in HEK cells which over-express Wild type β-APP. The IC50 values are based on the respective plateau of maximum inhibition.

Row | Structure (SMILES) | IC50 [1] | Emax [1] | IC50 [2] | Emax [2]
1 | COCCN(C(=O)c1cc(-c2ccccc2)c(=O)n2ccc3ccsc3c12)c1ccccc1 [Compound 23, 7-Oxo-8-phenyl-7H-thieno[2,3-a]quinolizine-10-carboxylic acid (2-methoxy-ethyl)phenyl-amide] | 6.7 µM | 100% | 3.4 µM | 100%
2 | CN(CC1CCCO1)C(=O)c1cc(-c2ccccc2)c(=O)n2ccc3ccsc3c12 (stereo not shown) [Compound 24, 7-Oxo-8-phenyl-7H-thieno[2,3-a]quinolizine-10-carboxylic acid methyl-(tetrahydrofuran-2-yl-methyl)-amide] | 7 µM | 40% | 10 µM | 60%
3 | COC1CCCCC1N(C)C(=O)c1cc(-c2ccccc2)c(=O)n2ccc3ccsc3c12 (stereo not shown) [Compound 26, 7-Oxo-8-phenyl-7H-thieno[2,3-a]quinolizine-10-(2-methoxycyclohexyl)-methyl-amide] | 5 µM | 80% | 1.2 µM | 100%
4 | CN1CCC[C@H]1COC(=O)c1cc(-c2ccccc2)c(=O)n2ccc3ccsc3c12 [Compound 28, 1-Methyl-pyrrolidin-2-(S)-yl-methyl 7-oxo-8-phenyl-7H-thieno[2,3-a]-quinolizine-10-carboxylate] | 9 µM | 100% | 2 µM | 100%
5 | O=C(OCCN1CCCC1=O)c1cc(-c2ccccc2)c(=O)n2ccc3ccsc3c12 [Compound 29, 2-(2-Oxo-pyrrolidin-1-yl)-ethyl 7-oxo-8-phenyl-7H-thieno[2,3-a]-quinolizine-10-carboxylate] | 3 µM | 40% | 4.1 µM | 80%
6 | CN(C)C(=O)COC(=O)c1cc(-c2ccccc2)c(=O)n2ccc3ccsc3c12 [Compound 30, Dimethyl-carbamoylmethyl 7-oxo-8-phenyl-7H-thieno[2,3-a]-quinolizine-10-carboxylate] | 5 µM | 25% | 5 µM | 60%
7 | CC(C)C[C@H](N)COC(=O)c1cc(-c2ccccc2)c(=O)n2ccc3ccsc3c12 [Compound 31, 2-(S)-Amino-4-methyl-pentyl 7-oxo-8-phenyl-7H-thieno[2,3-a]-quinolizine-10-carboxylate] | 5.3 µM | 100% | 1.2 µM | 55%
8 | O=C(OCCN1CCOCC1)c1cc(-c2ccccc2)c(=O)n2ccc3ccsc3c12 [Compound 32, 2-Morpholin-4-yl-ethyl 7-oxo-8-phenyl-7H-thieno[2,3-a]quinolizine-10-carboxylate hydrochloride] | 30 µM | 100% | 3 µM | 100%
9 | COC(=O)c1cc(-c2ccccc2)c(=O)n2ccccc12 [Compound 33, Methyl 4-oxo-3-phenyl-4H-quinolizine-1-carboxylate] | 6 µM | 40% | 5 µM | 40%
10 | COC[C@@H]1CCCN1C(=O)c1cc(-c2ccccc2)c(=O)n2ccc3ccsc3c12 [Compound 34, 10-(2-(S)-Methoxymethyl-pyrrolidine-1-carbonyl)-8-phenyl-thieno-[2,3-a]-quinolizin-7-one] | 9 µM | 50% | 4 µM | 60%
11 | COC[C@H]1CCCN1C(=O)c1cc(-c2ccccc2)c(=O)n2ccc3ccsc3c12 [Compound 35, 10-(2-(R)-Methoxymethyl-pyrrolidine-1-carbonyl)-8-phenyl-thieno-[2,3-a]quinolizin-7-one] | 6 µM | 50% | 3 µM | 65%
12 | COC(=O)c1cc(-c2ccccc2)c(=O)n2ccc3ccc(Cl)cc3c12 [Compound 36, Methyl 10-chloro-4-oxo-3-phenyl-4H-pyrido [2,1-a]isoquinoline-1-carboxylate] | 2.8 µM | 40% | 1 µM | 60%
13 | COCC1CCCN1C(=O)c1cc(-c2ccccc2)c(=O)n2ccc3ccc(Cl)cc3c12 (stereo not shown) [Compound 37, 10-Chloro-1-(2-methoxymethyl-pyrrolidine-1-carbonyl)-3-phenyl-pyrido [2,1-a]isoquinolin-4-one] | 7 µM | 100% | 1 µM | 70%
14 | COC[C@H]1CCCN1C(=O)c1cc(-c2ccccc2)c(=O)n2ccc3ccc(Cl)cc3c12 [Compound 38, 10-Chloro-1-(2-(R)methoxymethyl-pyrrolidine-1-carbonyl)-3-phenyl-pyrido [2,1-a]isoquinolin-4-one] | 7 µM | 100% | 1.5 µM | 70%
15 | COC1CN(C(=O)c2cc(-c3ccccc3)c(=O)n3ccc4ccsc4c23)C1 [Compound 39, 10-(3-Methoxy-azetidine-1-carbonyl)-8-phenyl-thieno[2,3-a]quinolizin-7-one] | 7 µM | 30% | 6 µM | 50%
16 | COC1CN(C(=O)c2cc(-c3ccccc3)c(=O)n3ccc4ccc(Cl)cc4c23)C1 [Compound 40, 10-Chloro-1-(3-methoxy-azetidine-1-carbonyl)-3-phenyl-pyrido-[2,1-a]isoquinolin-4-one] | 6.8 µM | 100% | 7 µM | 70%
17 | COC1CCN(C(=O)c2cc(-c3ccccc3)c(=O)n3ccc4ccc(Cl)cc4c23)C1 (stereo not shown) [Compound 41, 10-Chloro-1-(3-methoxy-pyrrolidine-1-carbonyl)-3-phenyl-pyrido [2,1-a]isoquinolin-4-one] | 6 µM | 100% | 3.5 µM | 75%
18 | CCN(CCOC)C(=O)c1cc(-c2ccccc2)c(=O)n2ccc3ccc(Cl)cc3c12 [Compound 42, 10-Chloro-4-oxo-3-phenyl-4H-pyrido[2,1-a]isoquinoline-1-carboxylic acid ethyl-(2-methoxy-ethyl)-amide] | 3 µM | 100% | 0.9 µM | 100%
19 | O=C(ON1C(=O)CCC1=O)c1cc(-c2ccccc2)c(=O)n2ccc3ccsc3c12 [Compound 43, 2,5-Dioxo-pyrrolidin-1-yl 7-oxo-8-phenyl-7H-thieno[2,3-a]quinolizine-10-carboxylate] | 2 µM | 50% | 5 µM | 70%
20 | O=C(c1cc(-c2ccc(O)cc2)c(=O)n2ccc3ccsc3c12)N1CCC[C@@H]1CO [Compound 44, 10-(2-(R)-Hydroxymethyl-pyrrolidine-1-carbonyl)-8-(4-hydroxyphenyl)-thieno[2,3-a]quinolizin-7-one] | 6 µM | 50% | 5 µM | 50%
21 | Cc1cc(C)n(C(=O)c2cc(-c3ccccc3)c(=O)n3ccc4ccsc4c23)n1 [Compound 45, 10-(3,5-Dimethyl-pyrazole-1-carbonyl)-8-phenyl-thieno[2,3-a]-quinolizin-7-one] | 0.9 µM | 40% | 0.5 µM | 30%
22 | O=C(OCC#CCN1CCOCC1)c1cc(-c2ccccc2)c(=O)n2ccc3ccsc3c12 [Compound 46, 4-(Morpholin-4-yl)-but-2-ynyl 7-oxo-8-phenyl-7H-thieno[2,3-a]-quinolizine-10-carboxylate] | 4 µM | 70% | 1 µM | 50%
23 | O=C(OCC#CCN1CCCC1)c1cc(-c2ccccc2)c(=O)n2ccc3ccsc3c12 [Compound 47, 4-(Pyrrolidin-1-yl)-but-2-ynyl 7-oxo-8-phenyl-7H-thieno[2,3-a]-quinolizine-10-carboxylate methanesulphonate] | 5 µM | 55% | 1.5 µM | 55%
24 | CC(C)N(CC#CCOC(=O)c1cc(-c2ccccc2)c(=O)n2ccc3ccsc3c12)C(C)C [Compound 48, 4-Diisopropylamino-but-2-ynyl 7-oxo-8-phenyl-7H-thieno[2,3-a]-quinolizine-10-carboxylate methanesulphonate] | 12 µM | 100% | 3.3 µM | 100%
25 | O=C(Nc1nccs1)c1cc(-c2ccccc2)c(=O)n2ccc3ccsc3c12 [Compound 49, 7-Oxo-8-phenyl-7H-thieno[2,3-a]quinolizine-10-carboxylic acid thiazol-2-yl-amide] | 0.7 µM | 50% | 0.5 µM | 50%
